Assay results taken from patent publication US10323018B2 (Millennium Pharmaceuticals, Inc., priority 2015, dated 2019).

Experiments:
[1] = system: PC3 cells; assay: PC3 growth inhibition (Cell-titer glo, 72 hours); assay type: cell-based; settings: Homo sapiens, PC-3, 72 h, read-out: Percent Viability, PC3 cells, compound concentration 1.667 μM, 72 hours
Summary of the method: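 After 72 h compound treatment in AIM serum-free medium (37 °C, 5% CO2), viability of overnight-plated PC3 cells (8×10^4 cells/ml, RPMI1640-maintained) is read by CellTiter-Glo luminescence versus DMSO. Curves give GI50, LD50 or single-concentration % remaining viability.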

[2] = biological target: hNAMPT protein (Homo sapiens (Human), UniProt P43490); assay: NAMPT enzyme assay (TR-FRET/HTRF with BodiPY ligand); assay type: binding; settings: for inhibition at 1 µM: NAMPT inhibition at compound concentration 1 μM, read-out: Percent Inhibition; for IC50: NAMPT inhibition, IC50 range class
Chain of hNAMPT protein (P43490 whole entry): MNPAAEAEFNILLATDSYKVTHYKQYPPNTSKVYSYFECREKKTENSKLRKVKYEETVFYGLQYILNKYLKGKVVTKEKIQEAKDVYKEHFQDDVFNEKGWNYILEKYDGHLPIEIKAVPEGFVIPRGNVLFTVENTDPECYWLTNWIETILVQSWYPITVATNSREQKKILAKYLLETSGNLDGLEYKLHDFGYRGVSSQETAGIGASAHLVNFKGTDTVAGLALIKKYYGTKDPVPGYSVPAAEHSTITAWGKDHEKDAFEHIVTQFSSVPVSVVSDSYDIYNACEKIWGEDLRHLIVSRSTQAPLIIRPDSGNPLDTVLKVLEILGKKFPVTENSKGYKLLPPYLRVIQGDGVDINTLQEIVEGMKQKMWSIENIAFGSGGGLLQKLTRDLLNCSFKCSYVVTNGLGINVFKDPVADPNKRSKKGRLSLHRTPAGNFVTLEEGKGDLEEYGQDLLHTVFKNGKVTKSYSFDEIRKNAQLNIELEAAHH
Summary of the method: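 Ligand displacement by TR-FRET: BodiPY emission (520 nm) over terbium (486 nm) after 320 nm excitation. Compound, BodiPY ligand, hNAMPT and anti-6His-Tb incubated 1 h at room temperature, dark, at pH 7.5. Percent inhibition computed versus DMSO; concentration-response curves fitted for IC50.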

Row | Compound | viability at 1.667 µM [1] [%] | inhibition at 1 µM [2] [%] | IC50 [2] [µM]
1 | CCOc1cc(-c2ccn(C)c(=O)c2)nc2cc(C(=O)NCCCc3nnc[nH]3)ccc12 [Compound I-118, 4-ethoxy-2-(1-methyl-2-oxo-1,2-dihydropyridin-4-yl)-N-[3-(4H-1,2,4-triazol-3-yl)propyl]quinoline-7-carboxamide] | 2 | 99 | 0.01 to 0.05
2 | CCOCc1nc(-c2ccc(Cl)cc2)nc2cc(C(=O)NCCCc3ncc[nH]3)ccc12 [Compound I-20, 2-(4-chlorophenyl)-4-(ethoxymethyl)-N-[3-(1H-imidazol-2-yl)propyl]quinazoline-7-carboxamide] | 1 | 98 | 0.01 to 0.05
3 | CCOc1cc(-c2cccnc2OC)nc2cc(C(=O)NCCc3nnc[nH]3)ccc12 [Compound I-180, 4-ethoxy-2-(2-methoxypyridin-3-yl)-N-[2-(4H-1,2,4-triazol-3-yl)ethyl]quinoline-7-carboxamide] | 2 | 83 | > 0.1
4 | CCOc1cc(-c2ccccc2)nc2cc(C(=O)NCCCc3nnc[nH]3)ccc12 [Compound I-207, 4-ethoxy-2-phenyl-N-[3-(4H-1,2,4-triazol-3-yl)propyl]quinoline-7-carboxamide] | 2 | 96 | 0.01 to 0.05
5 | CCOc1cc(-c2ccc(F)cc2OC)nc2cc(C(=O)NCc3ccn4ncnc4c3)ccc12 [Compound I-85, 4-ethoxy-2-(4-fluoro-2-methoxyphenyl)-N-([1,2,4]triazolo[1,5-a]pyridin-7-ylmethyl)quinoline-7-carboxamide] | 2 | 100 | < 0.01
6 | CCc1nc(-c2ccc(Cl)cc2)nc2cc(C(=O)NCCCc3ncc[nH]3)ccc12 [Compound I-33, 2-(4-chlorophenyl)-4-ethyl-N-[3-(1H-imidazol-2-yl)propyl]quinazoline-7-carboxamide] | 1 | 97 | 0.01 to 0.05
7 | CCOc1cc(-c2ccc(C)nc2)nc2cc(C(=O)NCc3nc4cnccc4[nH]3)ccc12 [Compound I-167, 4-ethoxy-N-(1H-imidazo[4,5-c]pyridin-2-ylmethyl)-2-(6-methylpyridin-3-yl)quinoline-7-carboxamide] | 2 | > 99 | < 0.01
8 | CCOc1cc(-c2ccc(C)nc2)nc2cc(C(=O)NCCCc3cnn[nH]3)ccc12 [Compound I-110, 4-ethoxy-2-(6-methylpyridin-3-yl)-N-[3-(1H-1,2,3-triazol-5-yl)propyl]quinoline-7-carboxamide] | 2 | 100 | < 0.01
9 | CCOc1cc(-c2cc(OC)ncc2F)nc2cc(C(=O)NCCCc3nnc[nH]3)ccc12 [Compound I-225, 4-ethoxy-2-(5-fluoro-2-methoxypyridin-4-yl)-N-[3-(4H-1,2,4-triazol-3-yl)propyl]quinoline-7-carboxamide] | 2 | 97 | 0.01 to 0.05
10 | CCOc1cc(-c2ccnc(OC)c2Cl)nc2cc(C(=O)NCCCc3nnc[nH]3)ccc12 [Compound I-166, 2-(3-chloro-2-methoxypyridin-4-yl)-4-ethoxy-N-[3-(4H-1,2,4-triazol-3-yl)propyl]quinoline-7-carboxamide] | 2 | 94 | 0.01 to 0.05
11 | CCOc1cc(-c2cc(Cl)ccc2F)nc2cc(C(=O)NCCCc3ncc[nH]3)ccc12 [Compound I-11, 2-(5-chloro-2-fluorophenyl)-4-ethoxy-N-[3-(1H-imidazol-2-yl)propyl]quinoline-7-carboxamide] | 1 | > 99 | < 0.01
12 | CCOc1cc(-c2ccc(C)nc2)nc2cc(C(=O)NCCc3c[nH]nc3C)ccc12 [Compound I-113, 4-ethoxy-N-[2-(3-methyl-1H-pyrazol-4-yl)ethyl]-2-(6-methylpyridin-3-yl)quinoline-7-carboxamide] | 2 | 97 | 0.01 to 0.05
13 | O=C(NCCCc1ncc[nH]1)c1ccc2c(Cc3ccccc3)nc(-c3ccc(Cl)cc3)nc2c1 [Compound I-53, 4-benzyl-2-(4-chlorophenyl)-N-[3-(1H-imidazol-2-yl)propyl]quinazoline-7-carboxamide] | 4 | 93 | 0.01 to 0.05
14 | CCOc1cc(OCC)c2ccc(C(=O)NCCCc3ncc[nH]3)cc2n1 [Compound I-61, N-(3-(1H-Imidazol-2-yl)propyl)-2,4-diethoxyquinoline-7-carboxamide] | 2 | 99 | < 0.01
15 | O=C(NCCCc1ncc[nH]1)c1ccc2c(OCCO)cc(-c3ccc(F)cc3)nc2c1 [Compound I-229, 2-(4-fluorophenyl)-4-(2-hydroxyethoxy)-N-[3-(1H-imidazol-2-yl)propyl]quinoline-7-carboxamide] | 2 | 99 | < 0.01
16 | CCOc1cc(-c2cc(F)cnc2OC)nc2cc(C(=O)NCCCc3nnc[nH]3)ccc12 [Compound I-161, 4-ethoxy-2-(5-fluoro-2-methoxypyridin-3-yl)-N-[3-(4H-1,2,4-triazol-3-yl)propyl]quinoline-7-carboxamide] | 2 | 97 | 0.01 to 0.05
17 | COc1nc(-c2ccc(Cl)cc2)nc2cc(C(=O)NCCCc3ncc[nH]3)ccc12 [Compound I-10, 2-(4-chlorophenyl)-N-[3-(1H-imidazol-2-yl)propyl]-4-methoxyquinazoline-7-carboxamide] | 1 | 100 | < 0.01
18 | CCOc1cc(-c2ccc(F)cc2)nc2cc(C(=O)NCCc3cncn3C)ccc12 [Compound I-2, 4-ethoxy-2-(4-fluorophenyl)-N-[2-(1-methyl-1H-imidazol-5-yl)ethyl]quinoline-7-carboxamide] | 2 | > 99 | < 0.01
19 | CCOc1cc(C2CC2)nc2cc(C(=O)NCCCc3ncc[nH]3)ccc12 [Compound I-58, N-(3-(1H-Imidazol-2-yl)propyl)-2-cyclopropyl-4-ethoxyquinoline-7-carboxamide] | 1 | 96 | 0.01 to 0.05
20 | CCOc1nc(-c2ccc(F)cc2)nc2cc(C(=O)NCCCc3ccnnc3)ccc12 [Compound I-29, 4-ethoxy-2-(4-fluorophenyl)-N-[3-(pyridazin-4-yl)propyl]quinazoline-7-carboxamide] | 1 | 100 | < 0.01
21 | CCCc1nc(-c2ccc(Cl)cc2)nc2cc(C(=O)NCC3CC3c3ncc[nH]3)ccc12 (racemic) [Compound I-59, 2-(4-chlorophenyl)-N-{[trans-(1,2)-2-(1H-imidazol-2-yl)cyclopropyl]methyl}-4-propylquinazoline-7-carboxamide] | 2 | 90 | 0.05 to 0.1
22 | CCOc1cc(-c2ccc(F)cc2)nc2cc(C(=O)NCc3cc4cnccc4s3)ccc12 [Compound I-79, 4-ethoxy-2-(4-fluorophenyl)-N-(thieno[3,2-c]pyridin-2-ylmethyl)quinoline-7-carboxamide] | 2 | 99 | < 0.01
23 | CCOc1cc(-c2ccnc(C)c2)nc2cc(C(=O)NCc3ccn4ncnc4c3)ccc12 [Compound I-86, 4-ethoxy-2-(2-methylpyridin-4-yl)-N-([1,2,4]triazolo[1,5-a]pyridin-7-ylmethyl)quinoline-7-carboxamide] | 2 | 99 | < 0.01
24 | CCOc1cc(N2CCCC2)nc2cc(C(=O)NCCCc3ncc[nH]3)ccc12 [Compound I-62, 4-Ethoxy-N-[3-(1H-imidazol-2-yl)propyl]-2-(pyrrolidin-1-yl)quinoline-7-carboxamide] | 2 | 95 | 0.05 to 0.1
25 | CCOc1cc(-c2ccc(C)nc2)nc2cc(C(=O)NCCCc3cc[nH]n3)ccc12 [Compound I-111, 4-ethoxy-2-(6-methylpyridin-3-yl)-N-[3-(1H-pyrazol-3-yl)propyl]quinoline-7-carboxamide] | 2 | 97 | 0.01 to 0.05
26 | CCOc1cc(-c2cccnc2)nc2cc(C(=O)NCCCc3nnc[nH]3)ccc12 [Compound I-209, 4-ethoxy-2-(pyridin-3-yl)-N-[3-(4H-1,2,4-triazol-3-yl)propyl]quinoline-7-carboxamide] | 1 | 92 | 0.05 to 0.1
27 | CCOc1cc(-c2ccnc(OC)c2F)nc2cc(C(=O)NCCCc3nnc[nH]3)ccc12 [Compound I-90, 4-ethoxy-2-(3-fluoro-2-methoxypyridin-4-yl)-N-[3-(4H-1,2,4-triazol-3-yl)propyl]quinoline-7-carboxamide] | 1 | 97 | 0.01 to 0.05
28 | CCOc1cc(-c2ccc(F)c(Cl)c2)nc2cc(C(=O)NCCCc3ncc[nH]3)ccc12 [Compound I-56, 2-(3-chloro-4-fluorophenyl)-4-ethoxy-N-[3-(1H-imidazol-2-yl)propyl]quinoline-7-carboxamide] | 1 | 99 | < 0.01
29 | CCOc1cc(-c2cn[nH]c2)nc2cc(C(=O)NCCCc3nnc[nH]3)ccc12 [Compound I-205, 4-ethoxy-2-(1H-pyrazol-4-yl)-N-[3-(4H-1,2,4-triazol-3-yl)propyl]quinoline-7-carboxamide] | 4 | 63 | > 0.1
